From patent US7572606B1 (Nereus Pharmaceuticals, Inc., priority 2005, dated 2009)
Values joined by “and” are separate entries in the source; they are usually repeats but may differ in a detail not shown here. Equal entries are not always repeated. “Also recorded” adds a separate entry of the source. Where two headings read alike, the source gives them in different places.

Assays:
B16-F10 = assay: Cell growth inhibition, resazurin, 48 h; assay type: cell-based, mouse; details: B16-F10, 48 h drug exposure
Experimental: RPMI 8226 (CCL-155), HT-29 (HTB-38), and B16-F10 (CRL-6475) cells were purchased from ATCC. RPMI 8226 cells were maintained in RPMI 1640 media supplemented with 10% (v/v) FBS, 2 mM L-glutamine, 1 mM sodium pyruvate and Penicillin/Streptomycin at 100 IU/ml and 100 μg/ml, respectively. HT-29 cells were maintained in McCoys 5A supplemented with 10% (v/v) FBS, 2 mM L-glutamine, 1 mM sodium pyruvate, 1% (v/v) non-essential amino acids, 10 mM HEPES and Penicillin/Streptomycin at 100 IU/ml and 100 μg/ml, respectively. B16-F10 cells were maintained in DMEM supplemented with 10% (v/v) FBS, 2 mM L-glutamine, 10 mM HEPES and Penicillin/Streptomycin at 100 IU/ml and 100 μg/ml, respectively.
RPMI 8226 cells were seeded at 2×10^4 cells/well in 90 μl RPMI media containing 10% (v/v) FBS or 1% (v/v) FBS into 96 well black-walled, clear-bottom tissue culture plates. […] Formulae II-16, II-17 and Formula II-18 were serially diluted in media containing 1% or 10% FBS and added in triplicate to the test wells. […] The final concentration of Formula II-18 ranged from 2 μM to 630 pM.

[1] = test system: PARP and Pro-Caspase 3 in RPMI 8226 cells; assay: PARP and Pro-Caspase 3 cleavage, western blot; assay type: cell-based, human; details: 100 nM for 0, 8 or 24 hours; varying concentrations for 8 hours
Experimental: (§1) Total protein lysates were made and 20 μg of the lysates were then resolved under reducing/denaturing conditions and blotted onto nitrocellulose. The blots were then probed with anti-PARP or anti-caspase 3 antibodies followed by stripping and reprobing with an anti-actin antibody.
25 μg of the lysates were then resolved under reducing/denaturing conditions and blotted onto nitrocellulose. The blots were then probed with anti-PARP or anti-caspase 3 antibodies followed by stripping and reprobing with an anti-actin antibody.

MES-SA/Dx5 = assay: Cell growth inhibition, resazurin, 48 h; details: for EC50: Homo sapiens, MES-SA/Dx5, 48 h
Experimental: (§2) Concentrations ranging from 6.32 μM to 2 nM were tested for II-2 and II-4.

MES-SA = assay: Cell growth inhibition, resazurin, 48 h; details: for EC50: Homo sapiens, 48 h
Experimental: as §2

[2] = Maximum Tolerated Dose (MTD) determination; assay type: in vivo, female BALB/c mice
Description: In vivo studies were designed to determine the MTD of Salinosporamide A when administered intravenously to female BALB/c mice.
Animals were observed daily for clinical signs and were weighed individually twice weekly until the end of the experiment (maximum of 14 days after the last day of dosing).

HL-60 = assay: Cell growth inhibition, resazurin, 48 h; details: for EC50: HL-60, 48 h drug exposure
Experimental: (§3) The DNA binding agent Mitoxantrone was included as a control, as HL-60/MX2 cells are reported to be resistant to this chemotherapeutic agent (Harker W. G. et al. 1989).
as §2

HL-60/MX2 = assay: Cell growth inhibition, resazurin, 48 h; details: for EC50: HL-60/MX2, 48 h drug exposure
Experimental: as §3, §2

OVCAR-3 = assay: Cell growth inhibition, resazurin, 48 h; assay type: cell-based, human; details: OVCAR-3, 48 h drug exposure
HL-60(TB) = details: Leukemia
[3] = test system: PARP and Pro-Caspase 3 in PC-3 cells; assay: PARP and Pro-Caspase 3 cleavage, western blot; assay type: cell-based, human; details: 100 nM for 0, 8 or 24 hours
Experimental: as §1

HEK293 = assay: Cell growth inhibition, resazurin, 48 h; assay type: cell-based; details: Homo sapiens; HEK293, 48 h drug exposure
Jurkat = assay: Cytotoxicity against Jurkat cells; assay type: cell-based, human
RAW264.7 cells = details: 12 nM, compound alone
DU 145 = assay: Cell growth inhibition, resazurin, 48 h; assay type: cell-based, human
[4] = biological target: T1, 20S proteasome chymotrypsin-like activity in PC-3 cells (Homo sapiens, UniProt P28074); assay: Chymotrypsin-like activity of 20S proteasomes in treated cells; assay type: cell-based; details: PC-3, read-out: % inhibition of the chymotrypsin-like activity of 20S proteasomes in PC-3 cell lysates, 1 hr; for inhibition at 0.01 µM: 10 nM; for inhibition at 0.1 µM: 100 nM; for inhibition at 1 µM: 1,000 nM; for inhibition at 10 µM: 10,000 nM
T1 construct: PC-3 (ATCC, CRL-1435), the human prostate cancer cell line; host or cells: PC-3
T1 sequence (P28074 60-263): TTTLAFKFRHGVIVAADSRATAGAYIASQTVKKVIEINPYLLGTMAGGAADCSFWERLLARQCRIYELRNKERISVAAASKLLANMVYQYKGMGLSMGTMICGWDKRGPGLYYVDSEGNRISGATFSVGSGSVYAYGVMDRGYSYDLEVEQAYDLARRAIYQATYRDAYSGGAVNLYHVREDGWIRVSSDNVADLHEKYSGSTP
Experimental: PC-3 (ATCC, CRL-1435), the human prostate cancer cell line, was cultured in F12K medium supplemented with 2 mM L-glutamine, 100 units/ml penicillin, 100 μg/ml streptomycin and 10% heat inactivated fetal bovine serum at 37° C., 5% CO2 and 95% humidified air. […] DMSO was used as the vehicle control at a final concentration of 0.1%. Following 1 hr incubation of PC-3 cells with the compounds, the cells were washed 3× with ice-cold 1×Dulbecco's Phosphate-Buffered Saline (DPBS, Mediatech, Herndon, Va.). […] Cell debris was pelleted by centrifugation at 14,000 rpm for 10 min, 4° C. and supernatants (=cell lysates) were transferred to a new tube. Protein concentration was determined by the BCA protein assay kit (Pierce Biotechnology, Rockford, Ill.). […] The total amount of protein used for each assay was 20 μg. The final concentration of Suc-LLVY-AMC and DMSO was 20 μM and 0.2%, respectively. Results are presented as the percent inhibition of the 20S proteasome chymotrypsin-like activity relative to the DMSO control.

[5] = biological target: caspase-like (PGPH) activity of rabbit muscle 20S proteasome (Oryctolagus cuniculus, UniProt A0A5F9DQW2); assay: In vitro inhibition of 20S proteasome, Z-LLE-AMC; details: read-out: EC50 Caspase-like (PGPH); purified rabbit 20S proteasome, Z-LLE-AMC
Sequence of caspase-like (PGPH) activity of rabbit muscle 20S proteasome (A0A5F9DQW2 1-212): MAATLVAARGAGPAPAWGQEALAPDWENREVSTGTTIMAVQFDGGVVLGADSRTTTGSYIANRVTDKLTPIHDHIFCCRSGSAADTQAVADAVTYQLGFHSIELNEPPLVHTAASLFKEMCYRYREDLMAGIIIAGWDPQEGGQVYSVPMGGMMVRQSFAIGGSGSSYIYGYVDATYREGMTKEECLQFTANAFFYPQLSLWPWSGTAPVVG

In the case of `C[C@@]12OC(=O)[C@]1([C@@H](O)[C@@H]1C=CCCC1)NC(=O)[C@@H]2CCCl` [Formula II-16, Salinosporamide A], the EC50 (B16-F10) is reported as 47 ± 20 nM, the EC50 (B16-F10; Mus musculus, B16-F10, 48 h) is reported as 33 nM and the “cleavage of PARP and Pro-Caspase 3” value [1] is reported as “cleavage of PARP and Pro-caspase 3 in a time-dependent manner; also recorded: dose-dependent cleavage of both PARP and Pro-Caspase 3”. The EC50 (MES-SA/Dx5) was 23 ± 1 nM, the “% cytotoxicity” value (MES-SA/Dx5; MES-SA/Dx5) was 92 ± 2% and the “% cytotoxicity” value (MES-SA) was 94 ± 1%. The EC50 (MES-SA) was 20 ± 5 nM, the well tolerated dose ([2]; i.v. daily for five consecutive days) was “up to 0.1 mg/kg” and the tolerated dose ([2]; single intravenous dose) was “up to 0.25 mg/kg”. The “% cytotoxicity” value (HL-60; HL-60) was 88% and 91%, the EC50 (HL-60) was 30 nM and the EC50 (HL-60; Homo sapiens, HL-60, 48 h) was 27 nM. The “% cytotoxicity” value (HL-60/MX2; HL-60/MX2) was 84% and 89%, the EC50 (HL-60/MX2) was 25 nM and the EC50 (HL-60/MX2; Homo sapiens, HL60/MX2, 48 h) was 28 nM. For the same compound, the EC50 (OVCAR-3; Homo sapiens, OVCAR-3, 48 h) was 69 nM, the EC50 (OVCAR-3) was 49 ± 31 nM and the “Log10 G150” value (HL-60(TB)) was <-8.00 Molar. For the same compound, the “Log10 TGI” value (HL-60(TB)) was -4.32 Molar, the “cleavage of PARP and Pro-Caspase 3” value [3] was “cleavage of PARP is noticeable at 24 hours” and the EC50 (HEK293) was 47 nM. For the same compound, the EC50 (Jurkat; Homo sapiens, Jurkat) was 10 nM, the “% max cell kill” value (Jurkat; Jurkat cells) was 97% and the viability (RAW264.7 cells) was 96%. The “% cytotoxicity” value (DU 145; DU 145) was 75 ± 4% and the EC50 (DU 145; Homo sapiens, DU 145, 48 h drug exposure) was 37 ± 10 nM.
In the case of `CC[C@H]1C(=O)N[C@@]2([C@@H](O)[C@@H]3C=CCCC3)C(=O)O[C@@]12C` [Formula II-17], the EC50 (MES-SA/Dx5; MES-SA/Dx5, 48 h drug exposure) is reported as 9450 nM, the EC50 (MES-SA; 48 h drug exposure) is reported as 9230 nM and the EC50 (HL-60; Homo sapiens, HL-60, 48 h) is reported as > 20000 nM. For the same compound, the EC50 (HL-60/MX2; Homo sapiens, HL60/MX2, 48 h) was > 20000 nM, the EC50 (OVCAR-3; Homo sapiens, read-out: EC50) was > 20000 nM and the inhibition at 0.01 µM [4] was 16%. It also gave an inhibition at 0.1 µM [4] of 26%, an inhibition at 1 µM [4] of 49% and an inhibition at 10 µM [4] of 79%.
For `C[C@H]1C(=O)N[C@@]2([C@@H](O)[C@@H]3C=CCCC3)C(=O)O[C@@]12C` [Formula II-20], the EC50 [5] was 1420 nM, the inhibition at 0.01 µM [4] was 38% and the inhibition at 0.1 µM [4] was 57%. It also gave an inhibition at 1 µM [4] of 71% and an inhibition at 10 µM [4] of 90%.
